One experiment has as its system Botrytis cinerea. Put plainly: Activity against the grey mold Botrytis cinerea in the microtiterplate test. It counts as cell-based. The following applies: relative growth vs active compound-free control (100%), MTP measured at 405 nm 7 days after inoculation.
The next experiment has as its system Septoria tritici. In words: Activity against leaf blotch on wheat caused by Septoria tritici (microtiter plate). It counts as cell-based. The settings on record: relative growth vs active compound-free control (100%), MTP measured at 405 nm 7 days after inoculation.
The subject of another experiment is Fusarium culmorum. Put plainly: Green house: control of culm rot on pearl millet caused by Fusarium culmorum. It counts as in vivo. The settings on record: 63 ppm spray on pearl millet seedlings; inoculated 7 days later; % diseased leaf area assessed after 6 days; untreated control 90. As to the method:
The spray solutions were prepared in several steps:
The stock solution were prepared: a mixture of acetone and/or dimethylsulfoxide and the wetting agent/emulsifier Wettol, which is based on ethoxylated alkylphenoles, in a relation (volume) solvent-emulsifier of 99 to 1 was added to 25 mg of the compound to give a total of 5 ml. Water was then added to total volume of 100 ml.
This stock solution was diluted with the described solvent-emulsifier-water mixture to the given concentration.
Pot-grown pearl millet seedlings were sprayed to run-off with an aqueous suspension, containing the concentration of active ingredient or their mixture as described below.The plants were allowed to air-dry. Seven days later the plants were inoculated with an spore suspension of Fusarium culmorum in a aqueous biomalt solution. Then the trial plants were immediately transferred to a humid chamber. After 6 days at 23-25° C. and a relative humidity close to 100% the extent of fungal attack on the leaves was visually assessed as % diseased leaf area.

Another experiment relates to Leptosphaeria nodorum. In words: Activity against wheat leaf spots caused by Leptosphaeria nodorum (microtiter plate). Type of experiment: cell-based. The following applies: relative growth vs active compound-free control (100%), MTP measured at 405 nm 7 days after inoculation.
The subject of another experiment is Pyricularia oryzae. It counts as cell-based. The following applies: relative growth vs active compound-free control (100%), MTP measured at 405 nm 7 days after inoculation.
A further experiment concerns Alternaria solani. In words: Activity against early blight caused by Alternaria solani (microtiter plate). It counts as cell-based. The settings on record: relative growth vs active compound-free control (100%), MTP measured at 405 nm 7 days after inoculation.

Consider 5 compounds from patent US20180310561A1 (priority 2015, published 2018).

Regarding `Cc1cc(C2=NC(C)(C)Cc3c(Br)cccc32)cnc1C` [I-1, 5-Bromo-1-(5,6-dimethyl-3-pyridyl)-3,3-dimethyl-4H-isoquinoline], in the experiment with Botrytis cinerea, the “Growth (%) at 32 ppm Botottis cinerea” value amounted to 0%. The “Growth (%) at 32 ppm Septona triad” value with Septoria tritici turned out to be 0%. The “Disease (%) at 63 ppm” value with Fusarium culmorum came out at 53%.
As to `Cc1cc(C2=NC(C)(C)Cc3c(F)cccc32)cnc1C` [drawing 1382], the “Disease (%) at 63 ppm” value in the experiment with Fusarium culmorum is listed as 88%.
For the compound `Cc1cc(C2=NC(C)(C)Cc3c(F)cccc32)cnc1C` [drawing 1380], the “Growth (%) at 31 ppm Leptosphaeria nodorum” value with Leptosphaeria nodorum is 39%.
For the compound `Cc1ccc(C2=CC(C)(C)Cc3ccccc32)cc1C`, in the experiment on Botrytis cinerea, the “Growth (%) at 32 ppm Botottis cinerea” value is recorded as 84%. Besides, in the experiment with Septoria tritici, the “Growth (%) at 32 ppm Septona triad” value worked out at 93%.
As to `Cc1cc(C2=NC(C)(C)Cc3ccccc32)cnc1C`, the “Growth (%) at 31 ppm Pyricularia” value in the experiment with Pyricularia oryzae is 23%. The “Growth (%) at 31 ppm Alternaria solanioryzae” value with Alternaria solani was 47%. For the same compound, the “Growth (%) at 31 ppm Leptosphaeria nodorum” value in the experiment on Leptosphaeria nodorum came out at 72%.
